Patent publication EP0401096A1, “Agents and complexes of ion Mg++ facilitating absorption of magnesium in a human or animal organism, and pharmaceutical or dietetic compositions useful for the administration of magnesium in a human or animal organism” (LABORATOIRES LUCIEN, priority 1989, dated 1990)

What was measured:
[1] = Potentiometric titration, formation constants of magnesium-ligand complexes ([…], ZAPAPLOT, PSEUDOPLOT); assay type: physicochemical; conditions: magnésium-malonate, 37°C
Excerpt: La complexation dans chaque système magnésium-ligand a ensuite été étudiée à partir de plusieurs titrages en solution aqueuse du ligand en présence de magnésium, pour différents rapports de concentrations métal-ligand correspondant à l'éventail le plus large possible de conditions thérapeutiques. Ces dosages se traduisent graphiquement par le tracé des courbes de protonation s = f ( -log[H] ), où s est le nombre moyen de protons liés au ligand. Ce type de courbes permet de visualiser la complexation. Par exemple, sur la figure 1, relative au système magnésium-malonate, on a représenté la courbe de protonation de référence du ligand par un trait plein et matérialisé les points expérimentaux des titrages du ligand en présence de magnésium par les symboles +, x, , □, ◁ dans l'ordre des rapports de concentrations métal/ligand croissants. On remarque deux zones de pH différentes : - l'une, de pH 2 à 3, pour laquelle les points se superposent à la courbe de protonation de référence, ce qui dénote une absence totale de complexation, - l'autre, de pH 3 à 7, pour laquelle les points sont décalés vers la gauche par rapport à la protonation de référence, c'est-à-dire vers des pH plus acides. Il y a donc une libération d'ions H+ en solution due à la complexation des ions Mg2+ par le malonate.
Cette complexation est confirmée par le tracé de la courbe de formation expérimentale p = f ( -log [L] ) au moyen d'un autre programme (ZAPAPLOT) où p est le nombre moyen de ligands liés au métal (représenté par le degré de formation DF à la figure 2). L'allure de cette courbe donne une idée de la forme sous laquelle le ligand intervient dans les complexes formés et permet d'estimer la valeur de leurs constantes de formation.
(§1) A partir des données expérimentales des titrages, le programme […] calcule les constantes par la méthode des moindres carrés. Parmi les différentes combinaisons de complexes possibles, seules sont retenues celles pour lesquelles les critères numériques (notamment la somme des carrés des résidus) sont convenables. Le meilleur ensemble est finalement choisi d'après le tracé des courbes de formation simulées au moyen d'un troisième programme informatique (PSEUDOPLOT) : c'est celui qui permet d'obtenir la meilleure coïncidence entre courbes expérimentale (figure 2) et simulée (figure 3).

[2] = Potentiometric titration, formation constants of calcium-ligand complexes; assay type: physicochemical; conditions: calcium-malonate, complexe ML (charge 0); 37°C
Excerpt: Trois cas possibles a priori ont été effectivement rencontrés : • i) si aucune complexation n'est constatée dans les conditions expérimentales précisées plus haut, c'est à dire si le degré de complexation reste nul sur tout le domaine de concentrations en ligand examiné, aucune espèce complexe indépendante ne peut exister dans le fluide gastro-intestinal. Ceci ne signifie pas que les ligands envisagés ne puissent pas coordonner le magnésium à des concentrations beaucoup plus élevées, mais cette possibilité se rapportant à des conditions extra-physiologiques ne présente pas d'intérêt dans le cadre de l'invention. • ii) si l'ensemble de complexes sélectionné d'après les critères ci-dessus n'est constitué que d'espèces ionisées, il est impossible à ces dernières de se dissoudre dans la membrane phospholipidique; les ligands correspondants ne peuvent donc être utilisés comme vecteurs pour l'absorption gastro-intestinale du magnésium. • iii) si l'ensemble retenu contient une ou plusieurs espèces neutres, les ligands correspondants peuvent être a priori des vecteurs efficaces pour l'absorption du magnésium par les membranes séparant le biofluide d'un biofluide voisin. Leur efficacité dépendra toutefois de la proportion de ces espèces neutres dans les conditions thérapeutiques. […]

[3] = Potentiometric titration, protonation constants of the ligand ([…]); assay type: physicochemical; conditions: proton-malonate, aqueous solution, 37°C
Protocol: La méthode potentiométrique associée aux techniques informatiques a été utilisée pour cette étude. Les constantes de protonation du ligand, utilisées par la suite comme références, ont été calculées au moyen d'un programme informatique ([…]) à partir de données expérimentales provenant de titrages réalisés en solution aqueuse à 37°C et sous atmosphère d'azote.
as §1

[4] = Magnesium balance in rats after oral administration (experiment coded 1.33, 4 lots of 18); assay type: in vivo, rat; conditions: mean (M), experiment 1.33
Excerpt: D'autres expérimentations basées sur des protocoles comparables ont confirmé les résultats ci-dessus. Elles ne feront pas toutefois l'objet d'une présentation en détails. Seuls les résultats de l'expérimentation suivante mettant en jeu l'acide malique et l'acide citrique seront présentés de façon globale dans les tableaux 10 et 11 ci-après.
La nouvelle expérimentation (codée 1.33) a été réalisée sur 4 lots de 18 animaux chacun, les lots I, II et III recevant les mêmes traitements que ceux administrés aux lots correspondants dans le cadre de l'expérimentation précédente et le lot IV recevant l'association "MgCl2 + acide citrique" à la dose de 38,88 mg de Mg2+/kg sous forme de MgCl2 + 1345 mg d'acide citrique/kg, sous un volume de 40 ml/kg d'eau déminéralisée (pH ajusté à 5), ce qui correspond à une concentration en magnésium CMg = 0,04 mol.dm-3 et à une concentration de citrate CTA = 0,16 mol.dm-3. Tableau 10

[5] = Magnesium balance in rats after oral administration (first experiment, 3 lots of 20); assay type: in vivo, rat; conditions: mean (M), oral 38,88 mg de Mg2+/kg
Protocol: L'essai porte sur 60 rats mâles S.P.F. de souche "CD", d'un poids moyen de 60 à 80 g à leur arrivée. Ils sont maintenus en animalerie conventionnelle dans des conditions identiques de température (21°C +/- 1°C), d'hygrométrie (40 à 70 %) et de luminosité (12h/24).
Dès leur arrivée, les animaux sont placés en cage à métabolisme et reçoivent un aliment contenant 570 mg de Mg2+/kg : concentration nécessaire et suffisante pour maintenir chez l'animal une magnésémie normale.
4 jours après leur arrivée, au temps "t-16h" de l'essai, soit 16 h avant l'administration des traitements (temps "t"), les animaux sont pesés, mis à jeun et le volume d'eau déminéralisée mis à leur disposition est exactement mesuré.
Au temps "t-1h" soit 1 h avant l'administration des traitements, l'eau de boisson est retirée. Elle est redistribuée 30 minutes après cette administration, le volume étant exactement mesuré.
Au temps "t+24h" les animaux sont sacrifiés par dislocation cervicale et le contenu de la vessie et des intestins est prélevé.
Les animaux sont répartis en 3 lots de 20 animaux chacun : • . Lot I : Témoins recevant 40 ml/kg d'eau déminéralisée; • . Lot II : Traités recevant 38,88 mg de Mg2+/kg sous forme de MgCl2, sous un volume de 40 ml/kg d'eau déminéralisée; • . Lot III : Traités recevant l'association "MgCl2 + acide malique" à la dose de 38,88 mg de Mg2+/kg sous forme de MgCl2 + 408 mg d'acide malique/kg, sous un volume de 40 ml/kg d'eau déminéralisée (pH ajusté à 5), ce qui correspond à une concentration en magnésium CMg = 0,04 mol.dm-3 et à une concentration de (DL)-malate CDLM = 0,076 mol.dm-3.
• a/ - Avant traitement : "t - 16 h" à "t" . Recueil des urines et mesure du volume. . Mesure de la consommation hydrique/15 h (les animaux étant privés d'eau de boisson 1 h avant l'administration des traitements). • b/ - Traitement : "t" . Pesée des animaux. . Administration des traitements, voie orale, par tubage oesophagien. • c/ - Après traitement : "t" à "t + 24 h" • c.1. Exploration urinaire : . […]

[6] = coefficient d'utilisation digestive

C. abs. ([4]; coefficient d'absorption) | C.u.d. [4, 6] | C.r. ([4]; coefficient de rétention) | MgF/24 h ([4]; faecal magnesium, oral 38,88 mg de Mg2+/kg) | MgU/24 h ([4]; urinary magnesium, oral 38,88 mg de Mg2+/kg) | C. abs. ([5]; coefficient d'absorption) | C.u.d. [5, 6] | C.r. ([5]; coefficient de rétention) | SMILES | log β ([1]; complexe ML3) | log β ([1]; complexe ML (charge 0)) | log β ([1]; complexe MLH-1) | log β ([1]; complexe MLH) | log β [2] | log β ([3]; complexe LH2) | log β ([3]; complexe LH)
– | – | – | – | – | – | – | – | O=C(O)CC(=O)O [MLO, malonate] | 5,266 | 2,064 | 6,326 | 5,524 | 1,511 | 7,815 | 5,235
30,19 | 66,89 | 43,78 | 2,003 mg/100 g de rat | 1,873 mg/100 g de rat | 38,948 | 73,617 | 50,083 | [Cl-].[Cl-].[Mg+2] [Lot II, MgCl2] | – | – | – | – | – | – | –
